These results are taken from patent US10703765B2 (priority 2014, dated 2020).

Each structure is given as a SMILES string. Structures can show the parent of a compound that is named as a salt.

For one experiment, the target named is human σ1 receptor (Homo sapiens, UniProt Q99720). Briefly: biochemical. It counts as binding. Also noted: μ and σ1 dual binding: key to the marks not given beside the values.
Sequence of human σ1 receptor (Q99720 whole entry): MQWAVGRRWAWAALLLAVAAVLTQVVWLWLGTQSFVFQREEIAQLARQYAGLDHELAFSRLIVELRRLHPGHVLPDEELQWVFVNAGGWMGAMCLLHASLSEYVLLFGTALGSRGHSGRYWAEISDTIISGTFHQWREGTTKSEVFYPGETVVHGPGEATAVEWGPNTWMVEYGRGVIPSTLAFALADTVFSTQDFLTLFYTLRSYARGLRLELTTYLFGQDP
Settings: not given
With `CC1OC2(CCN(CCc3ccccc3N)CC2)CN(c2ccccc2)C1=O` (stereo not drawn) [Example 229, 9-(2-aminophenethyl)-2-methyl-4-phenyl-1-oxa-4,9-diazaspiro[5.5]undecan-3-one], the Ki is < 100 nM.
On to `CC1OC2(CCN(CCc3ccccc3)CC2)CN(c2cccc(C(=O)N(C)C)c2)C1=O.Cl` (stereo not drawn) [Example 271, N,N-dimethyl-3-(2-methyl-3-oxo-9-phenethyl-1-oxa-4,9-diazaspiro[5.5]undecan-4-yl)benzamide hydrochloride], for which the “μ and σ1 dual binding” value is “++”.
As to `O=C1C(CC2CCOCC2)OC2(CCN(CCc3ccccc3)CC2)CN1c1ccccc1F` (stereo not drawn) [Example 311, 4-(2-fluorophenyl)-9-phenethyl-2-((tetrahydro-2H-pyran-4-yl)methyl)-1-oxa-4,9-diazaspiro[5.5]undecan-3-one hydrochloride], the Ki was < 500 nM.
Regarding `Cl.O=C1COC2(CCN(CCc3ccccc3)CC2)CN1CCc1ccncc1` [Example 178, 9-phenethyl-4-(2-(pyridin-4-yl)ethyl)-1-oxa-4,9-diazaspiro[5.5]undecan-3-one hydrochloride], the “μ and σ1 dual binding” value is given as “++”.
Take `CC1OC2(CCN(CCc3ccccc3)CC2)CN(c2ccc3cnn(C)c3c2)C1=O.Cl` (stereo not drawn) [Example 201, 2-methyl-4-(1-methyl-1H-indazol-6-yl)-9-phenethyl-1-oxa-4,9-diazaspiro[5.5]undecan-3-one hydrochloride]: the “μ and σ1 dual binding” value is listed as “++”.
Consider `CC1OC2(CCN(CCc3ccccc3)CC2)CN(c2cccnc2F)C1=O` (stereo not drawn) [Example 213, 4-(2-fluoropyridin-3-yl)-2-methyl-9-phenethyl-1-oxa-4,9-diazaspiro[5.5]undecan-3-one], for which the Ki was < 100 nM.
In the case of `Cl.O=C1COC2(CCN(CCc3ccccc3)CC2)CN1CCc1ccccn1` [Example 169, 9-phenethyl-4-(2-(pyridin-2-yl)ethyl)-1-oxa-4,9-diazaspiro[5.5]undecan-3-one hydrochloride], the “μ and σ1 dual binding” value is “++”.
Consider `COc1cccc(CCN2CCC3(CC2)CN(c2ccccc2)C(=O)C(C)O3)n1` (stereo not drawn) [Example 102, 9-(2-(6-methoxypyridin-2-yl)ethyl)-2-methyl-4-phenyl-1-oxa-4,9-diazaspiro[5.5]undecan-3-one hydrochloride], for which the Ki was < 500 nM.
For `CC1OC2(CCN(CCn3ccc4cccnc43)CC2)CN(c2ccccc2)C1=O.Cl` (stereo not drawn) [Example 69, 9-(2-(1H-pyrrolo[2,3-b]pyridin-1-yl)ethyl)-2-methyl-4-phenyl-1-oxa-4,9-diazaspiro[5.5]undecan-3-one hydrochloride], the “μ and σ1 dual binding” value was “++”.
On the same count and under the same terms, in the case of `COc1ccc(CCN2CCC3(CC2)CN(c2ccccc2)C(=O)C(C)O3)cn1` (stereo not drawn) [Example 111, 9-(2-(6-methoxypyridin-3-yl)ethyl)-2-methyl-4-phenyl-1-oxa-4,9-diazaspiro[5.5]undecan-3-one] it was “++”; in that of `CC1OC2(CCN(CCc3ccncc3)CC2)CN(c2ccccc2)C1=O.Cl` (stereo not drawn) [Example 133, 2-methyl-4-phenyl-9-(2-(pyridin-4-yl)ethyl)-1-oxa-4,9-diazaspiro[5.5]undecan-3-one hydrochloride], “++”.
In the case of `CC1OC2(CCN(CCc3cncc(F)c3)CC2)CN(c2ccccc2)C1=O` (stereo not drawn) [Example 114, 9-(2-(5-fluoropyridin-3-yl)ethyl)-2-methyl-4-phenyl-1-oxa-4,9-diazaspiro[5.5]undecan-3-one hydrochloride], the Ki was < 500 nM.
With `COc1ccccc1CCN1CCC2(CC1)CN(c1ccccc1F)C(=O)C(C(C)C)O2` (stereo not drawn) [Example 137, 4-(2-fluorophenyl)-2-isopropyl-9-(2-methoxyphenethyl)-1-oxa-4,9-diazaspiro[5.5]undecan-3-one hydrochloride], the Ki was < 100 nM.

The experiment is the same for the next values; noted with them: combined class from Ki-σ1 (human σ1 receptor, A1) and Ki-μ (human μ-opioid receptor, A2) radioligand binding.
With `CC1OC2(CCN(CCc3ccc(N)cn3)CC2)CN(c2ccccc2F)C1=O` (stereo not drawn) [Example 230, 9-(2-(5-aminopyridin-2-yl)ethyl)-4-(2-fluorophenyl)-2-methyl-1-oxa-4,9-diazaspiro[5.5]undecan-3-one], the “μ and σ1 dual binding” value was “++”.
Same read-out and setting: in the case of `COc1ccccc1N1CC2(CCN(Cc3ccccc3)CC2)OCC1=O` [Example 2, 9-benzyl-4-(2-methoxyphenyl)-1-oxa-4,9-diazaspiro[5.5]undecan-3-one] it was “++”; in that of `Oc1ccccc1CCN1CCC2(CC1)CN(c1ccccc1)CCO2` [Example 321, 2-(2-(4-phenyl-1-oxa-4,9-diazaspiro[5.5]undecan-9-yl)ethyl)phenol], “++”.

Still in this experiment, the particulars now being: read-out: μ and σ1 dual binding.
Regarding `CC1OC2(CCN(CCc3ncccc3Cl)CC2)CN(Cc2ccc(F)cn2)C1=O` (stereo not drawn) [Example 46, 9-(2-(3-chloropyridin-2-yl)ethyl)-4-((5-fluoropyridin-2-yl)methyl)-2-methyl-1-oxa-4,9-diazaspiro[5.5]undecan-3-one hydrochloride], the Ki was < 500 nM.
Same read-out and setting: the result for `CC1OC2(CCN(CCn3ccc(N)n3)CC2)CN(c2ccccc2)C1=O` (stereo not drawn) [Example 237, 9-(2-(3-amino-1H-pyrazol-1-yl)ethyl)-2-methyl-4-phenyl-1-oxa-4,9-diazaspiro[5.5]undecan-3-one hydrochloride] reads > 500 nM; that for `CC1OC2(CCN(CCn3ccc([N+](=O)[O-])n3)CC2)CN(c2ccccc2)C1=O` (stereo not drawn) [Example 110, 2-methyl-9-(2-(3-nitro-1H-pyrazol-1-yl)ethyl)-4-phenyl-1-oxa-4,9-diazaspiro[5.5]undecan-3-one], > 500 nM; that for `CC1OC2(CCN(CCc3ccccc3)CC2)CN(c2cccc(N)c2)C1=O` (stereo not drawn) [Example 227, 4-(3-aminophenyl)-2-methyl-9-phenethyl-1-oxa-4,9-diazaspiro[5.5]undecan-3-one], > 500 nM.
Still for that read-out and setting: in the case of `O=C1N(c2cnccc2C(F)(F)F)CC2(CCN(CCc3cc(F)ccc3F)CC2)OC12CC2` [Example 342, 8-(2,5-difluorophenethyl)-12-(4-(trifluoromethyl)pyridin-3-yl)-4-oxa-8,12-diazadispiro[2.1.5.3]tridecan-13-one] it was < 500 nM.
The same measure, in the same setting: the result for `CC(=O)Nc1cccc(CN2CC3(CCN(CCc4ccccc4)CC3)OCC2=O)c1` [Example 249, N-(3-((3-oxo-9-phenethyl-1-oxa-4,9-diazaspiro[5.5]undecan-4-yl)methyl)phenyl)acetamide hydrochloride] reads > 500 nM.
Regarding `N#CCCN1CC2(CCN(CCc3ccccc3)CC2)OC2(CC2)C1=O` [Example 181, 3-[13-oxo-8-phenethyl-4-oxa-8,12-diazadispiro[2.1.5.3]tridecan-12-yl]propanenitrile hydrochloride], the Ki was > 500 nM.
For `CC1OC2(CCN(CCN3CCOCC3)CC2)CN(c2ccccc2)C1=O` (stereo not drawn) [Example 65, 2-methyl-9-(2-morpholinoethyl)-4-phenyl-1-oxa-4,9-diazaspiro[5.5]undecan-3-one], the Ki was > 500 nM.
The same measure, in the same setting: the result for `CC1OC2(CCN(CCc3ccc(C(F)(F)F)nc3)CC2)CN(c2ccccc2F)C1=O` (stereo not drawn) [Example 91, 4-(2-fluorophenyl)-2-methyl-9-(2-(6-(trifluoromethyl)pyridin-3-yl)ethyl)-1-oxa-4,9-diazaspiro[5.5]undecan-3-one dihydrochloride] reads < 500 nM.
Still for that read-out and setting: in the case of `CC1OC2(CCN(CCC(=O)O)CC2)CN(c2ccccc2)C1=O` (stereo not drawn) [Example 269, 3-(2-methyl-3-oxo-4-phenyl-1-oxa-4,9-diazaspiro[5.5]undecan-9-yl)propanoic acid] it was > 500 nM; in that of `CC1OC2(CCN(CCc3ccccc3)CC2)CN(Cc2cscn2)C1=O` (stereo not drawn) [Example 164, 2-methyl-9-phenethyl-4-(thiazol-4-ylmethyl)-1-oxa-4,9-diazaspiro[5.5]undecan-3-one], < 100 nM.
As to `CC1OC2(CCN(CCc3ccccc3)CC2)CN(c2ncccc2C(F)(F)F)C1=O` (stereo not drawn) [Example 218, 2-methyl-9-phenethyl-4-(3-(trifluoromethyl)pyridin-2-yl)-1-oxa-4,9-diazaspiro[5.5]undecan-3-one], the Ki is < 500 nM.
Same read-out and setting: in the case of `CC1OC2(CCN(CCc3cccnc3[N+](=O)[O-])CC2)CN(c2cnccc2C(F)(F)F)C1=O` (stereo not drawn) [Example 43, 2-methyl-9-(2-(2-nitropyridin-3-yl)ethyl)-4-(4-(trifluoromethyl)pyridin-3-yl)-1-oxa-4,9-diazasprio[5.5]undecan-3-one] it was > 500 nM; in that of `C[C@H]1OC2(CCN(CCc3ccccc3)CC2)CN(c2ccccc2)C1=O` [Example 10a, (R)-2-methyl-9-phenethyl-4-phenyl-1-oxa-4,9-diazaspiro[5.5]undecan-3-one], < 100 nM; in that of `O=C1COC2(CCN(CCc3ccccc3)CC2)CN1Cc1ccc(F)cn1` [Example 176, 4-((5-fluoropyridin-2-yl)methyl)-9-phenethyl-1-oxa-4,9-diazaspiro[5.5]undecan-3-one hydrochloride], < 500 nM.
Same read-out and setting: the result for `COc1cccc(N2CC3(CCN(CCc4ccccc4)CC3)OC(C)C2=O)c1` (stereo not drawn) [Example 15, 4-(3-methoxyphenyl)-2-methyl-9-phenethyl-1-oxa-4,9-diazaspiro[5.5]undecan-3-one hydrochloride] reads < 500 nM; that for `CC1OC2(CCN(CCC(=O)N(C)c3ccccc3)CC2)CN(c2ccccc2)C1=O` (stereo not drawn) [Example 100, N-methyl-3-(2-methyl-3-oxo-4-phenyl-1-oxa-4,9-diazaspiro[5.5]undecan-9-yl)-N-phenylpropanamide hydrochloride], < 500 nM.
On the same count and under the same terms, the result for `O=C1N(c2cnccc2C(F)(F)F)CC2(CCN(CCc3ccccc3F)CC2)OC12CC2` [Example 223, 8-(2-fluorophenethyl)-12-(4-(trifluoromethyl)pyridin-3-yl)-4-oxa-8,12-diazadispiro[2.1.5.3]tridecan-13-one hydrochloride] reads < 100 nM; that for `CC(C)=C1OC2(CCN(CCc3ccccc3)CC2)CN(c2ccccc2F)C1=O` [Example 85, 4-(2-fluorophenyl)-9-phenethyl-2-(propan-2-ylidene)-1-oxa-4,9-diazaspiro[5.5]undecan-3-one], > 500 nM.
Consider `CC1OC2(CCN(CCc3ccc(C#N)cn3)CC2)CN(c2ccccc2)C1=O` (stereo not drawn) [Example 36, 6-(2-(2-methyl-3-oxo-4-phenyl-1-oxa-4,9-diazaspiro[5.5]undecan-9-yl)ethyl)nicotinonitrile hydrochloride], for which the Ki was > 500 nM.
